System: ATXN3-HiBiT protein
Assay: ATXN3 Total Protein Assay (Kelly-ATXN3-HiBiT luminescence)
Assay type: cell-based
Details: Kelly-ATXN3-HiBiT cells, 48 h after addition of compound
From the text: Example 36: ATXN3 Total Protein Assay
To monitor ATXN3 protein levels by luminescence, a Kelly-ATXN3-HiBiT cell line with homozygous knock-in of HiBiT at the C-terminus of the endogenous ATXN3 gene was used (knock-in of the HiBiT-tag coding sequence SEQ ID NO. 14: 5′[…]3′ into exon 11 of ATXN3-position 1114 of ATXN3 RefSeq NM_004993.6). Manipulations of the Kelly-ATXN3-HiBiT cell line that result in downregulation of the ATXN3-HiBiT protein (through modulation of ATXN3-HiBiT pre-mRNA splicing) can be followed by monitoring the luminescence signal of the HiBiT tag using the Nano Glo HiBiT Lytic Detection System (Promega, #N3050). Kelly-ATXN3-HiBiT cells were maintained in RPMI 1640 w/Glutamax (Gibco, #61870010), 10% FBS (Sigma Aldrich, #F8687), 1% Penicillin/Streptomycin (Gibco, #15140-122) at 37° C., 5% CO2. To assess HiBiT-luminescence signal upon compound treatment, 2000 Kelly-ATXN3-HiBiT cells were seeded per well in 384 plate format. Compounds were added 24 h after seeding. ATXN3-HiBiT-luminescence signal was read out 48 h after addition of the compound using the Nano Glo HiBiT Lytic Detection System (Promega, #N3050) according to the manufacturer's instructions. To control for cell viability, an identically prepared sister plate was read out with the CellTiter-Glo® 2.0 Assay (Promega, #G9243) according to the manufacturer's instructions. Fold changes of ATXN3-HiBiT-luminescence and of CellTiter-Glo viability signals were calculated relative to a DMSO control condition.

SMILES | EC50
[2H]C([2H])([2H])[C@H](N)Cc1oc2c(NCc3cccs3)cc(Cl)nc2c1C#C [Compound 270, 2-[(S)-2-amino(3,3,3-^2H3)propyl]-5-chloro-3-ethynyl-7-thenylamino-1-oxa-4-azaindene] | 0.01 to 100 nM
[2H]C([2H])([2H])[C@@H](N)Cc1oc2c(NCc3cccs3)cc(Cl)nc2c1C#C [Compound 271, 2-[(R)-2-amino(3,3,3-^2H3)propyl]-5-chloro-3-ethynyl-7-thenylamino-1-oxa-4-azaindene] | 101 to 500 nM
[2H]C([2H])([2H])OCC[C@H](N)Cc1oc2c(NCc3cccs3)cc(Cl)nc2c1Cl [Compound 273, 2-[(S)-2-amino-4-(^2H3)methoxybutyl]-3,5-dichloro-7-thenylamino-1-oxa-4-azaindene] | 101 to 500 nM
COCC[C@H](N)Cc1oc2c(NCc3cccs3)cc(Cl)nc2c1Cl [Compound 274, 2-[(S)-2-amino-4-methoxybutyl]-3,5-dichloro-7-thenylamino-1-oxa-4-azaindene] | 101 to 500 nM
Clc1cc(NCc2cccs2)c2occ(Br)c2n1 [Compound 279, (thenyl)(3-bromo-5-chloro-1-oxa-4-aza-7-indenyl)amine] | 101 to 500 nM
Clc1cc(NCc2ccncc2)c2occ(Br)c2n1 [Compound 280, [(4-pyridyl)methyl](3-bromo-5-chloro-1-oxa-4-aza-7-indenyl)amine] | 10000 to 40000 nM
C#Cc1c(C[C@@H](N)CC2(O)CC2)oc2c(NCc3cccs3)cc(Cl)nc12 [Compound 281, 1-[(2S)-2-amino-3-{5-chloro-3-ethynyl-7-[(thiophen-2-ylmethyl)amino]furo[3,2-b]pyridin-2-yl}propyl]cyclopropan-1-ol] | 501 to 5000 nM
[2H]C([2H])([2H])OC[C@]([2H])(N)Cc1oc2c(NCc3cccs3)cc(Cl)nc2c1Cl [Compound 282, 2-[(R)-2-amino-3-(^2H3)methoxy(2-2H)propyl]-3,5-dichloro-7-thenylamino-1-oxa-4-azaindene] | 0.01 to 100 nM
[2H][C@](N)(COC)Cc1oc2c(NCc3cccs3)cc(Cl)nc2c1Cl [Compound 283, 2-[(R)-2-amino-3-methoxy(2-^2H)propyl]-3,5-dichloro-7-thenylamino-1-oxa-4-azaindene] | 0.01 to 100 nM
[2H]C([2H])([2H])OC[C@]([2H])(N)Cc1oc2c(NCc3cccs3)cc(Cl)nc2c1Br [Compound 284, 2-[(R)-2-amino-3-(^2H3)methoxy(2-2H)propyl]-3-bromo-5-chloro-7-thenylamino-1-oxa-4-azaindene] | 0.01 to 100 nM
[2H]C([2H])([2H])OC[C@]([2H])(N)Cc1oc2c(NCc3cccs3)cc(Cl)nc2c1C#C [Compound 286, 2-[(R)-2-amino-3-(^2H3)methoxy(2-2H)propyl]-5-chloro-3-ethynyl-7-thenylamino-1-oxa-4-azaindene] | 0.01 to 100 nM
[2H][C@](N)(COC)Cc1oc2c(NCc3cccs3)cc(Cl)nc2c1C#C [Compound 287, 2-[(R)-2-amino-3-methoxy(2-^2H)propyl]-5-chloro-3-ethynyl-7-thenylamino-1-oxa-4-azaindene] | 0.01 to 100 nM
[2H]C([2H])(c1oc2c(NCc3cccs3)cc(Cl)nc2c1Br)[C@H](C)N [Compound 292, 2-[(S)-2-amino(1,1-^2H2)propyl]-3-bromo-5-chloro-7-thenylamino-1-oxa-4-azaindene] | 0.01 to 100 nM
[2H]C([2H])(c1oc2c(NCc3cccs3)cc(Cl)nc2c1Cl)[C@H](C)N [Compound 293, 2-[(S)-2-amino(1,1-^2H2)propyl]-3,5-dichloro-7-thenylamino-1-oxa-4-azaindene] | 0.01 to 100 nM
[2H]C([2H])(OC)[C@H](N)Cc1oc2c(NCc3cccs3)cc(Cl)nc2c1Br [Compound 296, 2-[(R)-2-amino-3-methoxy(3,3- ^2H2)propyl]-3-bromo-5-chloro-7-thenylamino-1-oxa-4-azaindene] | 0.01 to 100 nM
[2H]C([2H])([2H])OC([2H])([2H])[C@H](N)Cc1oc2c(NCc3cccs3)cc(Cl)nc2c1Br [Compound 297, 2-[(R)-2-amino-3-(^2H3)methoxy(3,3- ^2H2)propyl]-3-bromo-5-chloro-7-thenylamino-1-oxa-4-azaindene] | 0.01 to 100 nM
[2H]C([2H])(OC(F)F)[C@H](N)Cc1oc2c(NCc3cccs3)cc(Cl)nc2c1Br [Compound 298, 2-[(R)-2-amino-3-difluoromethoxy(3,3- ^2H2)propyl]-3-bromo-5-chloro-7-thenylamino-1-oxa-4-azaindene] | 0.01 to 100 nM
[2H]C([2H])(F)[C@H](N)Cc1oc2c(NCc3cccs3)cc(Cl)nc2c1Br [Compound 299, 2-[(R)-2-amino-3-fluoro(3,3-^2H2)propyl]-3-bromo-5-chloro-7-thenylamino-1-oxa-4-azaindene] | 0.01 to 100 nM
[2H]C([2H])(OC)[C@H](N)Cc1oc2c(NCc3cccs3)cc(Cl)nc2c1C#C [Compound 300, 2-[(R)-2-amino-3-methoxy(3,3- ^2H2)propyl]-5-chloro-3-ethynyl-7-thenylamino-1-oxa-4-azaindene] | 0.01 to 100 nM
[2H]C([2H])([2H])OC([2H])([2H])[C@H](N)Cc1oc2c(NCc3cccs3)cc(Cl)nc2c1C#C [Compound 301, 2-[(R)-2-amino-3-(^2H3)methoxy(3,3- ^2H2)propyl]-5-chloro-3-ethynyl-7-thenylamino-1-oxa-4-azaindene] | 0.01 to 100 nM
[2H]C([2H])(OC(F)F)[C@H](N)Cc1oc2c(NCc3cccs3)cc(Cl)nc2c1C#C [Compound 302, 2-[(R)-2-amino-3-difluoromethoxy(3,3- ^2H2)propyl]-5-chloro-3-ethynyl-7-thenylamino-1-oxa-4-azaindene] | 0.01 to 100 nM
[2H]C([2H])(c1oc2c(NCc3cccs3)cc(Cl)nc2c1Br)[C@@H](N)CF [Compound 305, 2-[(R)-2-amino-3-fluoro(1,1-^2H2)propyl]-3-bromo-5-chloro-7-thenylamino-1-oxa-4-azaindene] | 0.01 to 100 nM
[2H]C([2H])([2H])OCC[C@H](N)Cc1oc2c(NCc3cccs3)cc(Cl)nc2c1C#C [Compound 320, 2-[(S)-2-amino-4-(^2H3)methoxybutyl]-5-chloro-3-ethynyl-7-thenylamino-1-oxa-4-azaindene] | 0.01 to 100 nM
[2H]C([2H])(c1oc2c(NCc3cccs3)cc(Cl)nc2c1C#C)[C@H](C)N [Compound 327, 2-[(S)-2-amino(1,1-^2H2)propyl]-5-chloro-3-ethynyl-7-thenylamino-1-oxa-4-azaindene] | 0.01 to 100 nM
[2H]C([2H])(c1oc2c(NCc3cccs3)cc(Cl)nc2c1C#C)[C@@H](N)COC [Compound 330, 2-[(R)-2-amino-3-methoxy(1,1- ^2H2)propyl]-5-chloro-3-ethynyl-7-thenylamino-1-oxa-4-azaindene] | 0.01 to 100 nM
[2H]C([2H])(c1oc2c(NCc3cccs3)cc(Cl)nc2c1C#C)[C@@H](N)CF [Compound 335, 2-[(R)-2-amino-3-fluoro(1,1-^2H2)propyl]-5-chloro-3-ethynyl-7-thenylamino-1-oxa-4-azaindene] | 0.01 to 100 nM
[2H]C([2H])(c1oc2c(NCc3cccs3)cc(Cl)nc2c1Cl)[C@@H](N)CF [Compound 336, 2-[(R)-2-amino-3-fluoro(1,1-^2H2)propyl]-3,5-dichloro-7-thenylamino-1-oxa-4-azaindene] | 0.01 to 100 nM
COc1ccccc1CNc1cc(Cl)nc2c(Br)c(C[C@H](C)N)oc12 [Compound 337, 2-[(S)-2-aminopropyl]-3-bromo-5-chloro-7-{[(o-methoxyphenyl)methyl]amino}-1-oxa-4-azaindene] | 10000 to 40000 nM

Source: US20260001889A1, “COMPOSITIONS USEFUL FOR MODULATING SPLICING” (Skyhawk Therapeutics, Inc., priority 2022, published 2026)
